Test results as given in ChEMBL document CHEMBL1141295, “Constituents of Ocimum sanctum with antistress activity” (J Nat Prod, 2007).
The source made the active and inactive calls.

What was measured:
Type in all cases: functional, organism-based
Design in all cases: dose 40 mg/kg
Rattus norvegicus [1] = assay: Increase in acute stress induced plasma corticosterone levels in Sprague-Dawley rat at 40 mg/kg, po
Rattus norvegicus [2] = assay: Increase in acute stress induced adrenal gland weight in Sprague-Dawley rat at 40 mg/kg, po
Rattus norvegicus [3] = assay: Decrease in acute stress induced adrenal hypertrophy in Sprague-Dawley rat at 40 mg/kg, po
Rattus norvegicus [4] = assay: Increase in acute stress induced glucose levels in Sprague-Dawley rat at 40 mg/kg, po
Rattus norvegicus [5] = assay: Increase in acute stress induced plasma creatine levels in Sprague-Dawley rat at 40 mg/kg, po

Measured: Activity

C=CCc1ccc(O[C@@H]2O[C@H](CO)[C@@H](O)[C@H](O)[C@H]2O)c(O)c1
active: all assays above

CCCCCCCCCCCCCCCCCC(=O)OC[C@H](CO[C@@H]1O[C@H](CO[C@H]2O[C@H](CO)[C@H](O)[C@H](O)[C@H]2O)[C@H](O)[C@H](O)[C@H]1O)OC(=O)CCCCCCCCCCCCC
active: Rattus norvegicus [1] | Rattus norvegicus [2] | Rattus norvegicus [5]

CCCCCCCCCCCCCCCCCCCCCC(=O)O[C@H](COC(=O)CCCCCCCCCCCCCCC)CO[C@H]1O[C@H](CN)[C@@H](O)[C@H](O)[C@H]1O
active: all assays above
